According to PMC6963541, “Synthesis and Biological Evaluation of Lipophilic Nucleoside Analogues as Inhibitors of Aminoacyl-tRNA Synthetases” (Antibiotics, 2019):

Legend:
E. coli IleRS [1] = target: T1, E. coli IleRS (Escherichia coli, UniProt P00956); experiment: radiolabel aminoacyl transfer assay ([…]-Ile to tRNA, TCA precipitation); assay type: biochemical; conditions: 10 nM IleRS, 50 µM 14C-isoleucine, 2 mg/mL tRNA, 500 µM ATP, 10 mM MgCl2, pH 7.5, 37 °C, 10 min preincubation; dose-response curve not determined
T1 construct: gene ileS; purified recombinant E. coli IleRS
T1 sequence (P00956 2-938): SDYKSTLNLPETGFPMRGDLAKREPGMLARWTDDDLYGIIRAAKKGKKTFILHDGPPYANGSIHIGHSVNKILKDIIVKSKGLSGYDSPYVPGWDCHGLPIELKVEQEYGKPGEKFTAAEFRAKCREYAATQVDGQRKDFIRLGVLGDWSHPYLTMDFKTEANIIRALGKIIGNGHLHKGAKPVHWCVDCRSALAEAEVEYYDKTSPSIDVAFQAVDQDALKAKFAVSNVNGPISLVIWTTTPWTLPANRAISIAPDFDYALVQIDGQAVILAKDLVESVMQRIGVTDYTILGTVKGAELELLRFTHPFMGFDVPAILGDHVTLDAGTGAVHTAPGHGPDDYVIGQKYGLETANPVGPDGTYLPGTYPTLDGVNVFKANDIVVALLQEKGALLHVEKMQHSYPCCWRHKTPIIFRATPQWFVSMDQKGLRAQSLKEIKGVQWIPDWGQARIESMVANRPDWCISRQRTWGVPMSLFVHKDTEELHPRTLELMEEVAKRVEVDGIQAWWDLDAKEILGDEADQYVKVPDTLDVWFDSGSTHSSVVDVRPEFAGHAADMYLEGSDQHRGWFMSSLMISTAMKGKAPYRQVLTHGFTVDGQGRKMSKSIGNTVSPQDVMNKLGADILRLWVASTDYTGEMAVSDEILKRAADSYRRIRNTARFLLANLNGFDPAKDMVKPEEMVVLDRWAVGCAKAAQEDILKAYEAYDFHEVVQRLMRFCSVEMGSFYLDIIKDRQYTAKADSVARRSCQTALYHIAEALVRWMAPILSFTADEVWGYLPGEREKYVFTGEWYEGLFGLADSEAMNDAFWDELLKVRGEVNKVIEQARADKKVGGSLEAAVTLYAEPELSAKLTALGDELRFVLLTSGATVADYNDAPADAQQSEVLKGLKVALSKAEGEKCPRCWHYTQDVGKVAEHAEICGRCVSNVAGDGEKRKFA

E. coli IleRS [2] = target: T1, E. coli IleRS; experiment: as above; assay type: biochemical

| Compound | relative activity (E. coli IleRS [1]) | IC50 (E. coli IleRS [2]) |
| --- | --- | --- |
| CCCCCCCCCCCCCCCCCCNc1ncnc2c1ncn2[C@@H]1O[C@H](COS(=O)(=O)NC(=O)[C@@H](N)[C@@H](C)CC)[C@@H](O)[C@H]1O [6d, 5′-O-(N-L-isoleucyl)-sulfamoyl-N^6-octadecyl-adenosine] | the octadecyl compound 6d was found to be active only in the micromolar range | – |
| CCCCCCCCNc1ncnc2c1ncn2[C@@H]1O[C@H](COS(=O)(=O)NC(=O)[C@@H](N)[C@@H](C)CC)[C@@H](O)[C@H]1O [6b, 5′-O-(N-L-isoleucyl)-sulfamoyl-N^6-octyl-adenosine] | – | 42.8 ± 1 nM |
| CC[C@H](C)[C@H](N)C(=O)NS(=O)(=O)OC[C@H]1O[C@@H](n2cnc3c(NC)ncnc32)[C@H](O)[C@@H]1O [6a, 5′-O-(N-L-isoleucyl)-sulfamoyl-N^6-methyl-adenosine] | – | 13.9 ± 1 nM |
| CC[C@H](C)[C@H](N)C(=O)NS(=O)(=O)OC[C@H]1O[C@@H](n2cnc3c(OC)ncnc32)[C@H](O)[C@@H]1O [6f, 5′-O-(N-L-isoleucyl)-sulfamoyl-6-O-methyl-purine riboside] | – | 4.9 ± 1.1 nM |
| CCCCCCCCCCCCNc1ncnc2c1ncn2[C@@H]1O[C@H](COS(=O)(=O)NC(=O)[C@@H](N)[C@@H](C)CC)[C@@H](O)[C@H]1O [6c, 5′-O-(N-L-isoleucyl)-sulfamoyl-N^6-dodecyl-adenosine] | the dodecyl derivative 6c was active in submicromolar range | – |
| CC[C@H](C)[C@H](N)C(=O)NS(=O)(=O)OC[C@H]1O[C@@H](n2cnc3c(Nc4ccccc4)ncnc32)[C@H](O)[C@@H]1O [6e, 5′-O-(N-L-isoleucyl)-sulfamoyl-N^6-phenyl-adenosine] | – | 10.5 ± 1 nM |
